Experimental data taken from patent publication US9586901B2, “Lactams” (UNILEVER PLC, priority 2006, dated 2017).

Key:
Murine L929 cells = assay: Cytotoxicity study, L929 cell number after 48 hour culture; assay type: cell-based; details: for Mean (cell number): L929, 48 hour; for % Inhibition: cell number vs non-challenged cultures
Description: Murine L929 cells are established at low density and, during the testing period, grow to confluency in plastic petri dishes. 24 hours after the dishes are inoculated, the medium on the test dishes is aspirated and replaced with a medium containing the compound to be tested. The cell monolayer is then cultured for a further 48 hour period. At the end of the test period, cells are harvested from the dishes and their numbers assessed and compared with unperturbed cultures. Differences in cell numbers are expressed as a percentage inhibition in comparison to non-challenged cultures.

[1] = tested on: Pseudomonas aeruginosa PAO1 (wt); assay: Pulmonary model of infection: mice challenged with bacteria/seaweed alginate through the trachea; assay type: in vivo
Description: The first group was treated with 5-methylene-4-phenyl-dihydro-pyrrol-2-one (C219) as 12 μg/g body weight, given as injections twice a day for three days and the second group were treated with vehicle. (p=0.0008).
This model is reminiscent of the situation in CF patients or patients with a dysfunctional muccociliary escalator.
The treatment dosage of 5-methylene-4-phenyl-dihydro-pyrrol-2-one (C219) was 12 μg/g body weight, given as injections twice a day.
Mice were challenged with Pseudomonas aeruginosa PAO1 (wt) 5.2×10^6 CFU/lung (1.3×10^8 CFU/ml). Each group holds 10 mice, the treatments with C219 and Vehicle lasted for three days. The mortality was 10% in C219 and 30% in Vehicle groups. At day 5, the surviving mice were sacrificed.

V. fischeri luxRI system = assay: N-acylated homoserine lactone (AHL) quorum sensing assay, GFP reporter strain; assay type: cell-based, E. coli; details: for ID40 at 3 nM OHHL: Table 4, number in parentheses, amount of compound lowering relative activity to 40%
Description: Compounds of the present invention were compared to compounds of the prior art in order using an AHL-quorum sensing assay which utilises a reporter strain that expresses Green Fluorescent Protein (GFP) in the presence of AHL signals. The assay is performed by measuring GFP output in the presence of the compound to be measured and comparing the output to a control. By using multiple samples at varying concentrations of compound and AHL, an inhibition index of compound activity can be generated. The inhibition index used in the present example is the relative amount of compound required to reduce GFP expression to 40% of the control. The inhibition index is termed AIC40. Lower values of AIC40 represent better inhibitors of the AHL quorum sensing system.
The reporter strain of bacterium used in this assay is E. coli into which the V. fischeri luxRI system has been engineered. A gfp gene is fused to the QS controlled luxI promoter as is described in (Andersen et al., 2001, and Andersen et al, 1998).
Measurement of AIC40 (ID40 at 3 nM OHHL)
Determination of the activity of compounds using the E. coli based luxRI construct was performed as follows.
In a 15 mL plastic tube, mix 3 mL of o.n. culture of the lux reporter strain with 12 mL fresh medium, incubate at 37° C. Label six tubes, 10, 20, two 50 and two 100. To each of the tubes, add OHHL (3-oxohexanoyl homoserine lactone) to a final concentration of 10, 20, 50, or 100 nM respectively in the AB medium (add enough medium to distribute across the appropriate number of wells). To the first row of the microplate (row A), add 200 ul of the OHHL/AB mixture. To the remaining rows (B-H) add 100 ul of the OHHL/AB mixture. To the first row (A) add compounds to be tested to the 200 ul mixture of OHHL/AB. Make a dilution series in the first 7 rows by transferring 100 μL from wells in row 1 to wells in row 2 and so on. Discard the remaining 100 μL from row 7. Add 100 μL diluted lux monitor to each well. Incubate the plate 2 hours at 37° C. and measure green fluorescence using the “Victor” plate reader.
Calculate ID40 for each column. To do this, calculate the relative activity in each well. […] Make a plot for each concentration of OHHL vs. the range of compound concentrations used. Calculate the amount of compound needed to lower the relative activity to 40%, this is termed inhibiting dose 40%, ID40. For each compound an inhibition index, AIC40, is found as follows: plot ID40 against its respective AHL concentration; AIC40 is the slope of the best straight line through the plotted points and origin.
The methodology for this assay is set out in 2(a) above.

[2] = tested on: Staphylococcus epidermidis; assay: S. epidermidis growth inhibition (OD600 growth curves); assay type: cell-based; details: concentration of compound that significantly alters growth rate or final growth yield
Description: The growth inhibition of Staphylococcus epidermidis by the compounds of the present invention was determined by growing S. epidermidis in 96 well microtitre plates in Trypticase Soy Broth plus 0.5% glucose in a Wallac Victor2 microplate reader. Each compound was added to the wells at different concentrations and a no-compound control and a set of blank wells were also used. The OD600 was measured hourly.

LasR = LasR assay (unstable gfp fused to the elastase promoter); assay type: cell-based; details: Pseudomonas aeruginosa, read-out: LasR (conc)
Description: Compounds of the present invention were also assayed using a LasR assay. The LasR assay provides a measurement of quorum sensing inhibition activity. The higher the percentage inhibition. […] In the LasR assay, an unstable gfp has been fused to the elastase promoter, so that the amount of Gfp is regulated by the QS system. The plasmid is put into Pseudomonas aeruginosa which makes its own AHL signals. The assay is performed by adding the compounds to be tested to the system at the beginning of the experiment, at different concentrations. Gfp expression is measured at different times during growth, ending at the 24 h time point. The percentage fluorescence was determined at the time point when the fluorescence reached its maximum in the control, usually around 11-12 h after inoculation.

S. epidermidis biofilm = assay: Inhibition of biofilm formation in petri dishes, S. epidermidis; assay type: cell-based; details: percent reduction of control
Description: (§1) Biofilm formation in petri dishes was measured using the following protocol as a compromise between flow cells and microtitire plate based assays. The method increases the number of replicates (relative to flow cells) that can be tested while still generating a biofilm that has typical structures, such as microcolonies, which are important as differentiated structures within the biofilm. The method consists of placing a surface, such as a glass slide (for unattached compounds) or a modified plastic coupon (for covalently attached compounds) on the bottom of a sterile petri dish and adding growth medium. The bacteria are inoculated into the dish and allowed to incubate at the appropriate temperature at 50 rpm. The medium is replaced at 24 h and allowed to incubate a further 24 h, after which time, the slides are removed and rinsed to remove loosely attached cells. For monitoring biofilm formation on glass slides, the cells are either stained with a suitable fluorescent stain and are visualised using the confocal microscope and the biofilm (as % surface coverage) is quantified, or the biofilm is stained with crystal violet, washed thoroughly to remove excess stain, and subsequently destained and the absorbance at […] is measured to determine the amount of biofilm, as a function of crystal violet staining.

P. aeruginosa biofilm = assay: Inhibition of biofilm formation in petri dishes, P. aeruginosa; assay type: cell-based; details: percent reduction of control
Description: as §1

E. coli biofilm = assay: Inhibition of biofilm formation in petri dishes, E. coli; assay type: cell-based; details: 5 ug/ml; percent reduction of control
Description: as §1

[3] = 40 μg/ml, 30% = cytotoxic potential
[4] = Table 4 comparative results, first number of the cell, lower = better
[5] = inhibition index: slope of ID40 against AHL concentration, lower = better inhibitor, NE = no effect

## CCO [Ethanol]
Murine L929 cells; 4% Ethanol
  Mean (cell number): 3.40E+05
  % Inhibition: 30.7%
Murine L929 cells; 5% Ethanol
  Mean (cell number): 3.09E+05
  % Inhibition: 36.9%
Murine L929 cells; 7.5% Ethanol
  Mean (cell number): 7.63E+04
  % Inhibition: 84.5%

## C=C1NC(=O)C=C1c1ccccc1 [Compound 219, 5-methylene-4-phenyl-dihydro-pyrrol-2-one]
Murine L929 cells; 10 μg/ml
  Mean (cell number): 5.41E+05
  % Inhibition: −10.3%
Murine L929 cells; 20 μg/ml
  Mean (cell number): 4.95E+05
  % Inhibition: −1.0%
Murine L929 cells; 40 μg/ml, E+05 = ×10^5
  Mean (cell number): 4.74E+05
Murine L929 cells; [3]
  % Inhibition: 3.4%
Murine L929 cells; compared with compounds 226 and 223
  cytotoxicity (in words): surprisingly little or no cytotoxicity
[1]; 12 μg/g body weight, injections twice a day for three days, 10 mice per group, Vehicle 30%
  mortality: 10%
[1]; LIMP = fraction of total lung area showing inflammation, 12 μg/g twice a day for three days, vs vehicle
  severity (LIMP) of P aeruginosa lung infection: significantly reduced the severity (LIMP)
[1]; day 5, 12 μg/g twice a day for three days, vs Vehicle, p=0.0008 (FIG. 1)
  lung bacterial load: significantly reduced the lung bacterial load
V. fischeri luxRI system; [4]
  AIC40: significantly better AIC40 values than compounds 198 and 205

## C=C1NC(=O)C=C1c1cccc(C(F)(F)F)c1
V. fischeri luxRI system; [5]
  AIC40: 4.6
[2]
  minimal effective concentration: 0.5 µg/mL
LasR
  inhibition at 25 µg/mL: 40%

## C=C1NC(=O)C=C1c1ccc(F)cc1 [drawing 21]
V. fischeri luxRI system; unit not given
  ID40 at 3 nM OHHL: 17.61
V. fischeri luxRI system; [4]
  AIC40: 4.61
V. fischeri luxRI system; [5]
  AIC40: 4.61
[2]
  minimal effective concentration: 20 µg/mL
LasR
  inhibition at 50 µg/mL: 61%
S. epidermidis biofilm; 10 ug/ml
  S. epidermidis biofilm: 40% (10 ug/ml)
P. aeruginosa biofilm; 12.5 ug/ml
  P. aeruginosa biofilm: 78% (12.5 ug/ml)

## O=C1C=C(Br)/C(=C/Br)N1Cc1ccccc1 [reference compound]
V. fischeri luxRI system; [4]
  AIC40: 27

## C=C1NC(=O)C=C1c1ccc(F)cc1 [Compound 257]
V. fischeri luxRI system; [4]
  AIC40: significantly better AIC40 values than compounds 198 and 205

## CC1(O)NC(=O)C=C1c1ccc(F)cc1 (stereo not shown)
[2]
  minimal effective concentration: 100 µg/mL
LasR
  inhibition at 100 µg/mL: 28%

## C=C1C(c2ccccc2)=CC(=O)N1C
V. fischeri luxRI system; unit not given
  ID40 at 3 nM OHHL: 163.26
V. fischeri luxRI system; [4]
  AIC40: 52.76
V. fischeri luxRI system; [5]
  AIC40: 52.76
LasR
  inhibition at 50 µg/mL: 40%

## COc1cccc(C2=CC(=O)NC2(C)O)c1 (stereo not shown)
[2]
  minimal effective concentration: > 50 µg/mL

## C=C1NC(=O)C=C1c1ccc(OC)cc1 [drawing 24]
V. fischeri luxRI system
  ID40 at 3 nM OHHL: 61 nM
V. fischeri luxRI system; [4]
  AIC40: 5.4
V. fischeri luxRI system; [5]
  AIC40: 5.4
LasR
  inhibition at 25 µg/mL: 36%
P. aeruginosa biofilm; 25 ug/ml
  P. aeruginosa biofilm: 76% (25 ug/ml)

## CC1(O)NC(=O)C=C1Cc1ccccc1 (stereo not shown)
[2]
  minimal effective concentration: > 100 µg/mL

## C=C1NC(=O)C=C1Cc1ccccc1
V. fischeri luxRI system; unit not given
  ID40 at 3 nM OHHL: 239.79
V. fischeri luxRI system; [4]
  AIC40: 69.45
V. fischeri luxRI system; [5]
  AIC40: 69.45
LasR
  inhibition at 50 µg/mL: 61%

## C=C1NC(=O)C=C1c1ccc(C(F)(F)F)cc1
V. fischeri luxRI system; [5]
  AIC40: 1
[2]
  minimal effective concentration: 1 µg/mL
LasR
  inhibition at 25 µg/mL: 54%

## C=C1NC(=O)C=C1c1ccccc1F
V. fischeri luxRI system; [5]
  AIC40: 1.7
[2]
  minimal effective concentration: 20 µg/mL
LasR
  inhibition at 25 µg/mL: 60%
S. epidermidis biofilm; 0.3 ug/ml
  S. epidermidis biofilm: 60% (0.3 ug/ml)

## C=C1NC(=O)C=C1c1ccc(Br)cc1 [Compound 295]
V. fischeri luxRI system; [4]
  AIC40: significantly better AIC40 values than compounds 198 and 205

## C=C1NC(=O)C=C1c1ccccc1 [drawing 20]
E. coli biofilm
  E. coli biofilm: 95% (5 ug/ml)
V. fischeri luxRI system; unit not given
  ID40 at 3 nM OHHL: 16.2
V. fischeri luxRI system; [4]
  AIC40: 1.1
V. fischeri luxRI system; [5]
  AIC40: 1.1
[2]
  minimal effective concentration: 5 µg/mL
LasR
  inhibition at 50 µg/mL: 80%
P. aeruginosa biofilm; 10 ug/ml
  P. aeruginosa biofilm: 88% (10 ug/ml)

## CC(C)CN1C(=O)C(c2ccccc2)=CC1=C(Br)Br [Compound 223]
Murine L929 cells; 10 μg/ml
  Mean (cell number): 3.31E+05
  % Inhibition: 24.1%
Murine L929 cells; 20 μg/ml
  Mean (cell number): 2.94E+05
  % Inhibition: 32.5%
Murine L929 cells; 40 μg/ml, E+05 = ×10^5
  Mean (cell number): 2.07E+05
Murine L929 cells; [3]
  % Inhibition: 52.4%

## COc1ccccc1C1=CC(=O)NC1(C)O (stereo not shown)
[2]
  minimal effective concentration: > 50 µg/mL
LasR
  inhibition at 100 µg/mL: 41%

## C=C1NC(=O)C=C1c1cccc(F)c1
V. fischeri luxRI system; [5]
  AIC40: 1.3
[2]
  minimal effective concentration: 0.5 µg/mL
LasR
  inhibition at 25 µg/mL: 70%

## CCCC(O)C1=C(Br)/C(=C/Br)N(c2ccccc2)C1=O (stereo not shown) [reference compound]
V. fischeri luxRI system; [4]
  AIC40: 99

## CC(C)CN1C(=O)C=C(c2ccccc2)C1=C(Br)Br [Compound 226]
Murine L929 cells; 5 μg/ml
  Mean (cell number): 3.41E+05
  % Inhibition: 21.8%
Murine L929 cells; 10 μg/ml
  Mean (cell number): 2.14E+05
  % Inhibition: 50.9%
Murine L929 cells; 20 μg/ml
  Mean (cell number): 2.42E+05
  % Inhibition: 44.4%
Murine L929 cells; 40 μg/ml, E+05 = ×10^5
  Mean (cell number): 1.67E+05
Murine L929 cells; [3]
  % Inhibition: 61.6%

## CC1(O)NC(=O)C=C1c1ccccc1F (stereo not shown)
V. fischeri luxRI system; [5]
  AIC40: 9.9
[2]
  minimal effective concentration: > 100 µg/mL
LasR
  inhibition at 100 µg/mL: 40%
S. epidermidis biofilm; 50 ug/ml
  S. epidermidis biofilm: 17% (50 ug/ml)
P. aeruginosa biofilm; 20 ug/ml
  P. aeruginosa biofilm: 12% (20 ug/ml)

## CC1(O)NC(=O)C=C1c1cccc(F)c1 (stereo not shown)
[2]
  minimal effective concentration: > 100 µg/mL

## C=C1NC(=O)C=C1c1ccc(OC)cc1 [Compound 294]
V. fischeri luxRI system; [4]
  AIC40: significantly better AIC40 values than compounds 198 and 205
